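Test compounds were applied to cells in 96-well plates for 48 hours at 5 doses. GI50 = concentration required for 50% inhibition of growth. TGI: concentration producing complete growth inhibition.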 A value given as a limit tells only on which side of the number the result lay.

One test relates to NCI-H460 lung. Description: inhibition of tumour cell growth, NCI panel, 48 h.
The compound `CC(=O)N1N=C(c2ccc3ccccc3c2O)CC1C(=O)c1ccco1` (centres undefined) gave a TGI of over 100 µM.
Regarding `N#Cc1nc(-c2cccs2)oc1N`, the TGI is over 100 µM.
The same measure, in the same setting: the result for `O=c1[nH]/c(=C/c2ccc(OCc3ccccc3)cn2)c(=O)[nH]/c1=C/c1ccc(O)cc1` reads over 100 µM; that for `O=C(OCC1OC2OC(c3ccccc3)(n3ccc4c([N+](=O)[O-])ccnc43)OC2C1OC(=O)c1ccccc1)c1ccccc1` (centres undefined), over 100 µM.
Take `OCC1OC(n2cnc3c(Cl)nc(Nc4ccccc4)nc32)CC1O` (centres undefined): the TGI was over 100 µM.
Turning to `C[C@]12CCc3nc(Nc4ccccc4)sc3C1=CC[C@@H]1[C@@H]2CC[C@]2(C)/C(=N/NC(N)=S)CC[C@@H]12`, the GI50 was 6.14 µM and the TGI is over 100 µM.
In turn, `COC(=O)C1=CC(=O)OC1(OO)c1ccccc1` (centres undefined) came in with a TGI of over 100 µM.
Still for that read-out and setting: then `CC1=NN(c2ccc(S(=O)(=O)O)cc2)C2(C1)SCC(=O)N2c1nc2ccccc2s1` (centres undefined), with over 100 µM; and `CC(=O)O[C@H]1C#C/C=C\C#CC[C@@H]2C(=O)N[C@@H]12`, with 37.6 µM.
On the same count and under the same terms, then `Cc1ccc2nc(Cl)c(/C=N/N3C(=O)/C(=C/c4ccccc4S)N=C3c3ccccc3)cc2c1`, with over 100 µM.

The next test concerns PC-3 prostate. Description: inhibition of tumour cell growth, NCI panel, 48 h.
With `CCC1(C(=O)OC(C)(C)C)OC12C(C)CCCC2C` (centres undefined), the TGI is over 100 µM.
The same measure, in the same setting: the result for `Cc1ccc(-c2cc(N)n(-c3nc4c(c(=O)n(C)c(=O)n4C)n3C)n2)cc1` reads over 100 µM.
`CN(C)c1ccc(C2SCC(=O)N2NS(=O)(=O)c2cccc(C(=O)O)c2)cc1` (centres undefined) showed a TGI of over 100 µM.
Same read-out and setting: then `CC1CCOc2ccc(cc2)C=Nc2ccc(cc2)CCc2ccc(cc2)N=Cc2ccc(cc2)OCC1` (centres undefined), with over 100 µM; and `COC(=O)[C@H](Cc1ccccc1)NC(=O)[C@H](Cc1ccccc1)NC(=O)[C@@H]1CCCN1C(=O)N[C@H]1C2C=CC(C2)C1C(=O)N1CCC[C@H]1C(=O)N[C@@H](C)C(=O)N[C@H](C(=O)OC)C(C)C` (some centres undefined), with over 100 µM.
On the same count and under the same terms, then `O=C1c2ccccc2-c2nc(-c3cccc([N+](=O)[O-])c3)nnc21`, with over 100 µM.
Same read-out and setting: the result for `CNC(=O)Oc1ccc(-c2cn3cc(OC(=O)NC)ccc3n2)cc1` reads over 100 µM; that for `CC(=O)N1N=C(c2ccc3ccccc3c2O)CC1C(=O)c1ccco1` (centres undefined), over 100 µM; that for `N#Cc1nc(-c2cccs2)oc1N`, over 100 µM.
In turn, `O=c1[nH]/c(=C/c2ccc(OCc3ccccc3)cn2)c(=O)[nH]/c1=C/c1ccc(O)cc1` came in with a TGI of over 100 µM.
Same read-out and setting: then `O=C(OCC1OC2OC(c3ccccc3)(n3ccc4c([N+](=O)[O-])ccnc43)OC2C1OC(=O)c1ccccc1)c1ccccc1` (centres undefined), with over 100 µM.
Still for that read-out and setting: the result for `OCC1OC(n2cnc3c(Cl)nc(Nc4ccccc4)nc32)CC1O` (centres undefined) reads over 100 µM.
For the compound `C[C@]12CCc3nc(Nc4ccccc4)sc3C1=CC[C@@H]1[C@@H]2CC[C@]2(C)/C(=N/NC(N)=S)CC[C@@H]12`, the GI50 was 2.95 µM and the TGI is over 100 µM.
Compound `NCCSc1nc2ccccc2c(=O)n1-c1ccccc1` registered a TGI of over 100 µM.
Same read-out and setting: then `COC(=O)C1=CC(=O)OC1(OO)c1ccccc1` (centres undefined), with over 100 µM; and `Cc1cc(C2(O)C=C(C(C)(C)C)C(=O)C(C(C)(C)C)=C2)c(C)cc1C1(O)C=C(C(C)(C)C)C(=O)C(C(C)(C)C)=C1`, with over 100 µM; and `CC1=NN(c2ccc(S(=O)(=O)O)cc2)C2(C1)SCC(=O)N2c1nc2ccccc2s1` (centres undefined), with over 100 µM.
Same read-out and setting: the result for `CC(=O)O[C@H]1C#C/C=C\C#CC[C@@H]2C(=O)N[C@@H]12` reads over 100 µM; that for `Cc1ccc2nc(Cl)c(/C=N/N3C(=O)/C(=C/c4ccccc4S)N=C3c3ccccc3)cc2c1`, over 100 µM; that for `CCCSc1ccc2[nH]c(/N=C/c3ccco3)cc2c1`, over 100 µM.

A further test deals with SR leukemia. In words: inhibition of tumour cell growth, NCI panel, 48 h.
In turn, `CCC1(C(=O)OC(C)(C)C)OC12C(C)CCCC2C` (centres undefined) had a TGI of 38.3 µM.
`Cc1ccc(-c2cc(N)n(-c3nc4c(c(=O)n(C)c(=O)n4C)n3C)n2)cc1` had a TGI of over 100 µM.
Still for that read-out and setting: the result for `CC1CCOc2ccc(cc2)C=Nc2ccc(cc2)CCc2ccc(cc2)N=Cc2ccc(cc2)OCC1` (centres undefined) reads over 100 µM; that for `COC(=O)[C@H](Cc1ccccc1)NC(=O)[C@H](Cc1ccccc1)NC(=O)[C@@H]1CCCN1C(=O)N[C@H]1C2C=CC(C2)C1C(=O)N1CCC[C@H]1C(=O)N[C@@H](C)C(=O)N[C@H](C(=O)OC)C(C)C` (some centres undefined), over 100 µM.
In turn, `O=C1c2ccccc2-c2nc(-c3cccc([N+](=O)[O-])c3)nnc21` came in with a TGI of over 100 µM.
The same measure, in the same setting: then `CNC(=O)Oc1ccc(-c2cn3cc(OC(=O)NC)ccc3n2)cc1`, with over 100 µM.
Still for that read-out and setting: the result for `CC(=O)N1N=C(c2ccc3ccccc3c2O)CC1C(=O)c1ccco1` (centres undefined) reads 18.6 µM.
On the same count and under the same terms, the result for `N#Cc1nc(-c2cccs2)oc1N` reads over 100 µM; that for `O=c1[nH]/c(=C/c2ccc(OCc3ccccc3)cn2)c(=O)[nH]/c1=C/c1ccc(O)cc1`, 4.88 µM; that for `O=C(OCC1OC2OC(c3ccccc3)(n3ccc4c([N+](=O)[O-])ccnc43)OC2C1OC(=O)c1ccccc1)c1ccccc1` (centres undefined), over 100 µM.
`C[C@]12CCc3nc(Nc4ccccc4)sc3C1=CC[C@@H]1[C@@H]2CC[C@]2(C)/C(=N/NC(N)=S)CC[C@@H]12`: the GI50 was 1.71 µM and the TGI was over 100 µM.
The compound `NCCSc1nc2ccccc2c(=O)n1-c1ccccc1` came in with a TGI of over 100 µM.
Same read-out and setting: the result for `COC(=O)C1=CC(=O)OC1(OO)c1ccccc1` (centres undefined) reads over 100 µM; that for `Cc1cc(C2(O)C=C(C(C)(C)C)C(=O)C(C(C)(C)C)=C2)c(C)cc1C1(O)C=C(C(C)(C)C)C(=O)C(C(C)(C)C)=C1`, over 100 µM.
Same read-out and setting: then `Cc1ccc2nc(Cl)c(/C=N/N3C(=O)/C(=C/c4ccccc4S)N=C3c3ccccc3)cc2c1`, with 60.8 µM.
Same read-out and setting: the result for `CCCSc1ccc2[nH]c(/N=C/c3ccco3)cc2c1` reads 35.7 µM.
